Measured values from patent US12145944B2, “Imidazopyrimidines as EED inhibitors and the use thereof” (THE REGENTS OF THE UNIVERSITY OF MICHIGAN, priority 2019, dated 2024).

Experiments:
[1] = tested on: KARPAS422 human B cell lymphoma cell; test: Cell proliferation, KARPAS422, 7 day treatment (WST-8); type: cell-based; details: Homo sapiens, KARPAS-422, 168 h, anti-proliferative IC50 class, Karpas 422 cell line, 7 day treatment; read-out: Karpas Cell line
Outline: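 KARPAS422 cells seeded at 2 000-3 000 cells/well and exposed to serially diluted compounds for 7 days at 37 °C, 5% CO2. Growth measured by WST-8 (1-4 h, absorbance 450 nm). Readings normalized to DMSO-treated cells; IC50 from nonlinear regression.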

Pfeiffer cell line = test: Anti-proliferative activity, Pfeiffer cell line, 7 day treatment; type: cell-based; details: Homo sapiens, 168 h; anti-proliferative IC50 class, Pfeiffer cell line, 7 day treatment; read-out: Pfeiffer Cell line
Experimental: “N/A” stands for “not assessed”.
To assess the effect of PRC2 inhibition on cell growth, cells were seeded in 96-well cell culture plates at a density of 2 000-3 000 cells/well in 200 µL of culture medium, and treated with serially diluted compounds for 7 days at 37° C. in an atmosphere of 5% CO2. Cell growth was evaluated by a […] WST-8 assay (Dojindo Molecular Technologies) using a Tecan Infinite M1000 multimode microplate reader (Tecan, Morrisville, NC). The WST-8 reagent was added to the plate, incubated for 1-4 h, and read at 450 nm. The readings were normalized to the DMSO-treated cells, and the IC50 was calculated by nonlinear regression analysis using GraphPad Prism 6 software

Structure (SMILES) | IC50 [1] | IC50 (Pfeiffer cell line)
Cc1ccc2c(n1)Cn1c(C)cnc1-c1ncn3c(NCc4c(F)ccc5c4CCO5)ncc-2c13 [E 18, N-((5-fluoro-2,3-dihydrobenzofuran-4-yl)methyl)-5,8-dimethyl-6H-2,3,5a,7,12,13a-hexaazabenzo[4,5]cyclopenta[7,8]cycloocta[1,2,3-cd]inden-13-amine] | 10 to 100 nM | < 10 nM
O=C1NCCc2ccccc2-c2cnc(NCc3c(F)ccc4c3CCO4)n3cnc1c23 [E 28, 13-(((5-fluoro-2,3-dihydrobenzofuran-4-yl)methyl)amino)-5,6-dihydro-2,4,12,13a-tetraazabenzo[4,5]cyclonona[1,2,3-cd]inden-3(4H)-one] | > 100 nM | 10 to 100 nM
Cc1ccc2c(n1)CCNC(=O)c1ncn3c(NCc4c(F)ccc5c4CCO5)ncc-2c13 [E 29, 13-(((5-fluoro-2,3-dihydrobenzofuran-4-yl)methyl)amino)-8-methyl-5,6-dihydro-2,4,7,12,13a-pentaazabenzo[4,5]cyclonona[1,2,3-cd]inden-3(4H)-one] | 10 to 100 nM | 10 to 100 nM
Fc1ccc2c(c1CNc1ncc3c4c(ncn14)-c1nccn1Cc1cc(C(F)(F)F)ncc1-3)CCO2 [E 33, N-((5-fluoro-2,3-dihydrobenzofuran-4-yl)methyl)-8-(trifluoromethyl)-6H-2,3,5a,9,12,13a-hexaazabenzo[4,5]cyclopenta[7,8]cycloocta[1,2,3-cd]inden-13-amine] | 10 to 100 nM | 10 to 100 nM
Cc1ccc2c(n1)Cn1ccnc1-c1ncn3c(NCc4c(F)ccc5c4CCO5)ncc-2c13 [E 34, N-((5-fluoro-2,3-dihydrobenzofuran-4-yl)methyl)-8-methyl-6H-2,3,5a,7,12,13a-hexaazabenzo[4,5]cyclopenta[7,8]cycloocta[1,2,3-cd]inden-13-amine] | 10 to 100 nM | < 10 nM

Results, then the compound that gave them:

IC50 [1] | IC50 (Pfeiffer cell line) | Structure (SMILES)
10 to 100 nM | 10 to 100 nM | [2H]C([2H])(Nc1ncc2c3c(ncn13)C(=O)N(CC(F)(F)F)Cc1cc(C(=O)N(C)C)ccc1-2)c1c(F)ccc2c1CCO2 [E 24, 12-(((5-fluoro-2,3-dihydrobenzofuran-4-yl)methyl-d2)amino)-N,N-dimethyl-3-oxo-4-(2,2,2-trifluoroethyl)-4,5-dihydro-3H-2,4,11,12a-tetraazabenzo[4,5]cycloocta[1,2,3-cd]indene-7-carboxamide]
10 to 100 nM | 10 to 100 nM | Cc1ccc2c(n1)CCN(CC(F)(F)F)C(=O)c1ncn3c(NCc4c(F)ccc5c4CCO5)ncc-2c13 [E 30, 13-(((5-fluoro-2,3-dihydrobenzofuran-4-yl)methyl)amino)-8-methyl-4-(2,2,2-trifluoroethyl)-5,6-dihydro-2,4,7,12,13a-pentaazabenzo[4,5]cyclonona[1,2,3-cd]inden-3(4H)-one]
10 to 100 nM | 10 to 100 nM | CC(C)N1CCc2cc(C(F)(F)F)ncc2-c2cnc(NCc3c(F)ccc4c3CCO4)n3cnc(c23)C1=O [E 31, 13-(((5-fluoro-2,3-dihydrobenzofuran-4-yl)methyl)amino)-4-isopropyl-8-(trifluoromethyl)-5,6-dihydro-2,4,9,12,13a-pentaazabenzo[4,5]cyclonona[1,2,3-cd]inden-3(4H)-one]
10 to 100 nM | < 10 nM | Fc1ccc2c(c1CNc1ncc3c4c(ncn14)-c1nccn1Cc1nc(C(F)(F)F)ccc1-3)CCO2 [E 32, N-((5-fluoro-2,3-dihydrobenzofuran-4-yl)methyl)-8-(trifluoromethyl)-6H-2,3,5a,7,12,13a-hexaazabenzo[4,5]cyclopenta[7,8]cycloocta[1,2,3-cd]inden-13-amine]
10 to 100 nM | 10 to 100 nM | Cc1onc2c1Cc1cc(C(F)(F)F)ncc1-c1cnc(NCc3c(F)ccc4c3CCO4)n3cnc-2c13 [E 35, N-((5-fluoro-2,3-dihydrobenzofuran-4-yl)methyl)-5-methyl-8-(trifluoromethyl)-6H-4-oxa-2,3,9,12,13a-pentaazabenzo[4,5]cyclopenta[7,8]cycloocta [1,2,3-cd]inden-13-amine]
